Laboratory results published in ChEMBL document CHEMBL1201862, “PubChem BioAssay data set” (2004).
Calls of active or inactive are those of the source.

How the values were obtained:
[1] = target: T1, Alkaline phosphatase, tissue-nonspecific isozyme (Homo sapiens, UniProt P05186); assay: TNAP enzyme inhibition by screening hits, dose response, selectivity assay for mouse IAP inhibitor project, biochemical, human TNAP, uHTS hits (AID 488906); type: functional
T1 sequence (P05186 whole entry): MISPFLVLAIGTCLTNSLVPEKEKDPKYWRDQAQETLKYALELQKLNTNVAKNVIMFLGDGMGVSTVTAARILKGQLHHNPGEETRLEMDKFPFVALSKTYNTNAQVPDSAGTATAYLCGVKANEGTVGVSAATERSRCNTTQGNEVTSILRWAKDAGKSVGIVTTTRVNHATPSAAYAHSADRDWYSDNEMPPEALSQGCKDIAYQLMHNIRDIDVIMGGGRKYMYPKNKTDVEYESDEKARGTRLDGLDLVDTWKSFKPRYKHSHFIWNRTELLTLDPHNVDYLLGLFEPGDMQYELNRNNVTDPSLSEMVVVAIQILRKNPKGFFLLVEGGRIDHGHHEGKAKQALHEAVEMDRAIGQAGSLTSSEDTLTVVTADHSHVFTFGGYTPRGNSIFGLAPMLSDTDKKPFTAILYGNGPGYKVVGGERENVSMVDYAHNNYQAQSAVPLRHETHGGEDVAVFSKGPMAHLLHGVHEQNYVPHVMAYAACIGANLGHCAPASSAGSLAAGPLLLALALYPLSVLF

[2] = target: Intestinal-type alkaline phosphatase (Homo sapiens, UniProt P09923); assay: inhibition of human intestinal alkaline phosphatase – biochemical, dose response (AID 488876); type: functional
[3] = target: Intestinal-type alkaline phosphatase (Mus musculus, UniProt P24822); assay: PubChem AID 488785; type: functional
[4] = target: Lysine-specific demethylase 4C (Homo sapiens, UniProt Q9H3R0); assay: inhibition of JMJD2C H3K9me3 demethylation – biochemical, DELFIA europium, cherry-picked samples, dose response (AID 488835); type: functional
[5] = reduction of Shn3 3'UTR-driven luciferase in osteoblasts – cell-based, Clone20 osteoblasts, firefly luciferase, cherry-picked, dose response (AID 624132); type: functional;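 also: firefly luciferase luminescence from reporter carrying the Shn3 3'UTR in osteoblasts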
INS1 = assay: INS-1E survival protection against cytokine death – cell-based, luminescence, retest, dose response (AID 449756); type: functional; details: Rattus norvegicus, INS1;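 also: cell death triggered by IL-1 beta plus TNF-alpha plus IFN-gamma mixture; protective hits raise ATP signal compared with cytokine alone wells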
H9c2 = assay: cells; type: functional, cell-based; details: Rattus norvegicus, H9c2, Myocardium;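 also: confirmatory concentration-response retest of ultra-high-throughput screening hits for modulation of myocardial damage; cell death induced by hydrogen peroxide oxidative stress; compound pretreatment for 60 min then peroxide exposure for 2 h; potency is for protecting the cells against peroxide damage rather than for killing them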
cells [6] = type: functional, cell-based
cells [7] = type: functional, cell-based; remark: listed apart in the source
[8] = non-specific 3'UTR reporter inhibition in Clone20-Shn3RL – cell-based, Renilla luciferase, cherry-picked, counter-screen for Shn3 inhibitor project, dose response (AID 624133); type: functional
[9] = loss of viability in HepG2 cells – cell-based, CellTiter-Glo, cherry-picked, cytotoxicity control for Shn3 inhibitor project, dose response (AID 624134); type: functional
Streptococcus = assay: GAS UMAA2166 growth inhibition – luminescence, BacTiterGlo, counter-screen for streptokinase expression inhibitor project, dose response (AID 1915); type: functional, organism-based;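 also: potency for reduction of bacterial viability or growth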
[10] = decrease of insulin promoter-GFP reporter – imaging, high-content screening, mouse beta cells (AID 1628); type: functional; details: MIN6
Streptokinase A = target: T2, Streptokinase A (Streptococcus pyogenes serotype M1, UniProt P10520); assay: viability-normalized secreted streptokinase activity reduction – plasminogen activation absorbance, OD405, dose response (AID 1914); type: functional, Streptococcus pyogenes M1 GAS;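 also: secreted streptokinase activity via plasminogen activation per viability signal from cell pellet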
T2 sequence (P10520 whole entry): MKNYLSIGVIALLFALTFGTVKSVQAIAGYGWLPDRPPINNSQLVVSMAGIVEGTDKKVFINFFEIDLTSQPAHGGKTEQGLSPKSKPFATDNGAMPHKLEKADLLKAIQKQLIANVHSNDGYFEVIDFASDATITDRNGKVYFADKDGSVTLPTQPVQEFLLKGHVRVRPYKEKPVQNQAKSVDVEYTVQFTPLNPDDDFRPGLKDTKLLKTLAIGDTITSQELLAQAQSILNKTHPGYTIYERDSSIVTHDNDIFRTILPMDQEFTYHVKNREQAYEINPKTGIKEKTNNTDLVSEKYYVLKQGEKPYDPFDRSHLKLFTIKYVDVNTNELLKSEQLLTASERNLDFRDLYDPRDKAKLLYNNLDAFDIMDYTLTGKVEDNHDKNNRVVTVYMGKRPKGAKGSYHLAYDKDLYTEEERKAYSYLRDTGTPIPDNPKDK

[11] = system: Streptococcus sp. 'group A'; assay: Streptococcus pyogenes SK(-)GAS viability under kanamycin – luminescence, BacTiterGlo, confirmation, counter-screen for streptokinase expression inhibitor project, dose response (AID 1900); type: functional, organism-based
[12] = MIN6 cell viability loss – mouse insulinoma, cytotoxicity control, dose response (AID 2122); type: functional;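 also: confirmatory high-throughput counterscreen run to flag cytotoxic compounds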
HEK293 [13] = assay: cells; details: Homo sapiens
[14] = viability of PTEN-deleted HCT116 cells – cell-based, HCT116 PTEN knockout, dose response (AID 1047); type: functional;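 also: HCT116 colon tumor cells with PTEN knocked out; cells exposed to compound for 60 hours before readout; potency for loss of cell viability measured by luminescence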
HEK293 [15] = assay: cells; details: Homo sapiens; remark: listed apart in the source
[16] = Luminescence Cell-Based Dose Retest to Confirm Inhibitors of Cancer Stem Cells. [Related pubchem assays (depositor defined):AID2717, AID2721]; type: functional; details: Homo sapiens
[17] = viability of HCT116 lacking mutant beta-catenin – cell-based, human colon tumor, dose response (AID 1045); type: functional;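 also: HCT116 colon tumor cells with beta catenin knocked out; cells exposed to compound for 60 hours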
SUMO E1/E2 = SUMO E1/E2 (Homo sapiens, UniProt P63279+Q9UBE0+Q9UBT2); assay: SAR analysis of SUMOylation using HTRF in an in-Vitro dose response assay. [Related pubchem assays (depositor defined):AID2006, AID2011, AID2018, AID2069, AID2658]; type: functional
Protein Wnt-3a = Protein Wnt-3a (Mus musculus, UniProt P27467); assay: antagonism of Wnt3a pathway luciferase reporter – Wnt-LIGHT cells, luminescence, selectivity assay for Gli-SUFU antagonist project, dose response (AID 651570); type: functional; details: read-out: IC50_Mean;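 also: Wnt-LIGHT reporter cells stimulated with conditioned medium from Wnt3a-producing cells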
[18] = target: Voltage-dependent T-type calcium channel subunit alpha-1H (Homo sapiens, UniProt O95180); type: functional;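 also: channel activity triggered by adding a high calcium stimulation buffer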
[19] = target: T3, Ubiquitin-conjugating enzyme E2 N (Homo sapiens, UniProt P61088); type: functional
T3 sequence (P61088 whole entry): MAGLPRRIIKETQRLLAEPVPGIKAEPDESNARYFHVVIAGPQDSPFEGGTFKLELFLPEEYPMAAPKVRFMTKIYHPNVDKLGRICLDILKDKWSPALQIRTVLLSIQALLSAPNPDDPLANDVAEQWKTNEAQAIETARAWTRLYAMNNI

Bcl-2-related protein A1 = target: T4, Bcl-2-related protein A1 (Mus musculus, UniProt Q07440); type: functional;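 also: confirmatory dose–response counterscreen on Bfl-1, used to check hits from a UBC13 polyubiquitin inhibitor campaign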
T4 sequence (Q07440 whole entry): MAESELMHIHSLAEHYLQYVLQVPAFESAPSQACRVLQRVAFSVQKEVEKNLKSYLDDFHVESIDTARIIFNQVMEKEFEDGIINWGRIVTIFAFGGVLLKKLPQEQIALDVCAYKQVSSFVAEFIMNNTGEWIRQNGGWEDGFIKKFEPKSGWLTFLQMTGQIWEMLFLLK

[20] = target: T3, Ubiquitin-conjugating enzyme E2 N; type: functional; remark: listed apart in the source

SUMO E1/E2, sequence (Q9UBE0 whole entry): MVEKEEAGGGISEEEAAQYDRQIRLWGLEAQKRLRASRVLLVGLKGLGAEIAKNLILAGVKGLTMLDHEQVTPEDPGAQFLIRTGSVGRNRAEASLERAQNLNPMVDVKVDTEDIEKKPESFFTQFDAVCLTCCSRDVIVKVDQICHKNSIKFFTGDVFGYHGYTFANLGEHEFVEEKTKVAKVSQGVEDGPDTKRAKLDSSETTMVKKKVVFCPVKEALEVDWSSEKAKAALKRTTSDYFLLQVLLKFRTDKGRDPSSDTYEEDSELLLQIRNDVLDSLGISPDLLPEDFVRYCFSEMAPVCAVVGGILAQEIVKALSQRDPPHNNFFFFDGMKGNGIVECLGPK
SUMO E1/E2, sequence (Q9UBT2 whole entry): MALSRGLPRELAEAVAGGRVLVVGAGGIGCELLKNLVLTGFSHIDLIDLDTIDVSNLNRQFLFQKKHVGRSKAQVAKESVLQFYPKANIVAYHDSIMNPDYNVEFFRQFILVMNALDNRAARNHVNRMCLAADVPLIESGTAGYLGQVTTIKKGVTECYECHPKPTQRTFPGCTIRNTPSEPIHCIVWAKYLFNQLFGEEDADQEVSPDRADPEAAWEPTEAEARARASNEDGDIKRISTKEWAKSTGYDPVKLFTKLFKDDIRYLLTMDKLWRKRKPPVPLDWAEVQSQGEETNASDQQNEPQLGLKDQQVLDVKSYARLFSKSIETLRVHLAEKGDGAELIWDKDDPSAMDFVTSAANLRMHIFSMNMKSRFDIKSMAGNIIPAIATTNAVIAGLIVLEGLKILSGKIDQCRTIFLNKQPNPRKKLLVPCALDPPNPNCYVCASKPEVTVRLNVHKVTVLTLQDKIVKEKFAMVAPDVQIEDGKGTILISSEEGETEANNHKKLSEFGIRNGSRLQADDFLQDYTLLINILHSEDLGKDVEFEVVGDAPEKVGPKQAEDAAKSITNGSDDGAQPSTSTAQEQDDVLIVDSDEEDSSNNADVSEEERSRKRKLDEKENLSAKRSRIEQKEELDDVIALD
SUMO E1/E2, sequence (P63279 whole entry): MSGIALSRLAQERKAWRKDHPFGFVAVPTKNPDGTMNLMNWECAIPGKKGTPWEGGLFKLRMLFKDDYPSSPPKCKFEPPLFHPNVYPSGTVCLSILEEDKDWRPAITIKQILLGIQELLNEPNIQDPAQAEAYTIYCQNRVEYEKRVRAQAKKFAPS
Lysine-specific demethylase 4C, sequence (Q9H3R0 whole entry): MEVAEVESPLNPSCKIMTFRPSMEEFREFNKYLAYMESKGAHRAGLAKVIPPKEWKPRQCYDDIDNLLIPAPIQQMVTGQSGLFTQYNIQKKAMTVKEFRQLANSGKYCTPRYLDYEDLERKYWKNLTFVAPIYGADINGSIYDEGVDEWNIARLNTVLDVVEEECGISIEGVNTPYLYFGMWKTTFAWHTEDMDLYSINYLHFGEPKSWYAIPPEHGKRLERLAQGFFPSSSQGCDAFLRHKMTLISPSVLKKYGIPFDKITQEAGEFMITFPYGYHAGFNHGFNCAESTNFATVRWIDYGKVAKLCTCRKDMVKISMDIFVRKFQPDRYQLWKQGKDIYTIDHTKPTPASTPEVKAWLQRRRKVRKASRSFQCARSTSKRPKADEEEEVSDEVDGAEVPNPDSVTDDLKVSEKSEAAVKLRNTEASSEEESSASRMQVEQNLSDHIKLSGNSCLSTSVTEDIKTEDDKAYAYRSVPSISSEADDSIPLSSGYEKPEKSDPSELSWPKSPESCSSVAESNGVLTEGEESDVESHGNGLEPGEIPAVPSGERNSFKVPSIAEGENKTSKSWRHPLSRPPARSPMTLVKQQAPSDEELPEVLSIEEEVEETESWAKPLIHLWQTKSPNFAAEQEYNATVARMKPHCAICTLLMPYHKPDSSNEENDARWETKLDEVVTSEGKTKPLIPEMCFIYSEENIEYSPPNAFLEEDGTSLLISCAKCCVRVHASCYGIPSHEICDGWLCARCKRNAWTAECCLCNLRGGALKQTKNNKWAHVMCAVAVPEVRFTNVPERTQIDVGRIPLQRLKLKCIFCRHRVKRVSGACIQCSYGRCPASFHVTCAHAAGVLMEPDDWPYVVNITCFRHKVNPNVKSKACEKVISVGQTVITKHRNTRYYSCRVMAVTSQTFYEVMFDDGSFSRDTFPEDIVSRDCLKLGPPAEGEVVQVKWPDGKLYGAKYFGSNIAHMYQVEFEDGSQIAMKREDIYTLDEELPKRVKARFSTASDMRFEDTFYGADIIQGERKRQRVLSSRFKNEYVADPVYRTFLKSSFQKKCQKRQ
Intestinal-type alkaline phosphatase (Mus musculus, UniProt P24822), sequence (P24822 whole entry): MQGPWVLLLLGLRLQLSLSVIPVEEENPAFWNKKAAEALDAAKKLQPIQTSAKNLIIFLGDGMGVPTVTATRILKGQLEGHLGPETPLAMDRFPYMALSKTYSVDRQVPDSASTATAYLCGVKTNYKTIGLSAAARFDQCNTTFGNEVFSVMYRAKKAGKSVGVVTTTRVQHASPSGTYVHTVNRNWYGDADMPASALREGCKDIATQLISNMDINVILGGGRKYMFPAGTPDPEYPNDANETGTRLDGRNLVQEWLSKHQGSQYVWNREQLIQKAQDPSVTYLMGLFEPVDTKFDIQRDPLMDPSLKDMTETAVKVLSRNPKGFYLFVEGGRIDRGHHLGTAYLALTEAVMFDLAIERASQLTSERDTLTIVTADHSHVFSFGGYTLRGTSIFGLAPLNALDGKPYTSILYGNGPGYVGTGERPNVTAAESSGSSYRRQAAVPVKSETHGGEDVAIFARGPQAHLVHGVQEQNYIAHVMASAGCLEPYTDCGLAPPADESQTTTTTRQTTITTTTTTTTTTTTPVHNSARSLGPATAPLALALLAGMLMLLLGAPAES
Protein Wnt-3a, sequence (P27467 whole entry): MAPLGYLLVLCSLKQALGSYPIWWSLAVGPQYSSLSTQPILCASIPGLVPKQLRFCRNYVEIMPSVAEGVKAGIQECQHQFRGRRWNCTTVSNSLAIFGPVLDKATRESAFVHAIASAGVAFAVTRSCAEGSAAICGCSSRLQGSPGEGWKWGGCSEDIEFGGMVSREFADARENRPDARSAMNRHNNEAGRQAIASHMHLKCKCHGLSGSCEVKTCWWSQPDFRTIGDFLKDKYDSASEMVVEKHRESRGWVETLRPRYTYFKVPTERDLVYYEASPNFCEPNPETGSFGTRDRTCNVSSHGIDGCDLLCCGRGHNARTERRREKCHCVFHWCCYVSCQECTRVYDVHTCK
Intestinal-type alkaline phosphatase (Homo sapiens, UniProt P09923), sequence (P09923 whole entry): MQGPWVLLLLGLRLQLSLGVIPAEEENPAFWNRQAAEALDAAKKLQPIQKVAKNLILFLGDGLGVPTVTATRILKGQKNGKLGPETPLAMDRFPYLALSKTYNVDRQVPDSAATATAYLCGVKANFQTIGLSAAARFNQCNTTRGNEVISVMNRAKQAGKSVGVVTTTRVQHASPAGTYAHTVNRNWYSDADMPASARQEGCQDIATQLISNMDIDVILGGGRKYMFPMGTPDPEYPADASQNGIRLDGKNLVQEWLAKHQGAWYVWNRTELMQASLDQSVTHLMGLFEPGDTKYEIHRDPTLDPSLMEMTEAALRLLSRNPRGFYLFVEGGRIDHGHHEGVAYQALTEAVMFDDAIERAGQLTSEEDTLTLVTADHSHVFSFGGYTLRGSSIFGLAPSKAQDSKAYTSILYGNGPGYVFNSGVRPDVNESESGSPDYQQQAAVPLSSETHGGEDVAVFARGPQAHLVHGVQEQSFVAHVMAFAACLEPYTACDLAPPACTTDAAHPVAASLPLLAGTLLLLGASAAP

With `Cc1ccc(C)c(NC(=O)CCNS(=O)(=O)c2ccc3[nH]c(=O)oc3c2)c1` the IC50 [1] was 22.6 µM (active), the IC50 [2] was > 100 µM (inactive) and the IC50 [3] was 5.21 µM (active).
In the case of `COc1ccc(NC(=O)CNC(=O)c2nn(-c3ccc(OC)c(Cl)c3)c(=O)c3ccccc23)c(OC)c1`, the AC50 [4] was 21.5 µM (active).
With `O=C(Nc1nc(-c2ccccn2)cs1)c1cccc(-n2cnnn2)c1` the AC50 [5] was 2.58 µM (active), the AC50 (INS1) was 1.56 µM (active) and the IC50 (H9c2) was > 79 µM (inactive). For the same compound, the EC50 (cells [6]) was > 350 µM (not active), the EC50 (cells [7]) was > 350 µM (not active) and the AC50 [8] was 2.43 µM (active). For the same compound, the AC50 [9] was 8.31 µM (active), the EC50 (Streptococcus) was > 150 µM (not active) and the IC50 [10] was 2.43 µM (active). For the same compound, the EC50 (Streptokinase A) was > 150 µM (not active), the EC50 [11] was 24.7 µM (active) and the IC50 [12] was 2.54 µM (active).
In the case of `O=C(NCCC1=CCCCC1)c1coc(=O)c(Br)c1`, the EC50 (HEK293 [13]) was > 59.6 µM (inactive), the EC50 [14] was 28.9 µM (active) and the EC50 (HEK293 [15]) was > 59.6 µM (inactive). For the same compound, the AC50 [16] was 6.05 µM (active) and the EC50 [17] was 28.6 µM (active).
For `O=c1c2ccccc2nc(COc2ccccc2)n1N=Cc1cc([N+](=O)[O-])ccc1O`, the IC50 (SUMO E1/E2) was 43.7 µM (active).
In the case of `CCCOc1ccccc1N=C(NC(=O)COc1ccc(OC)cc1)Nc1nc(C)cc(C)n1`, the IC50 (Protein Wnt-3a) was 6.39 µM (active), the AC50 [5] was 3.24 µM (active) and the AC50 [8] was 6.58 µM (active). For the same compound, the AC50 [9] was 49.3 µM (active), the EC50 [18] was 8.53 µM (active) and the IC50 [10] was 2.3 µM (active). For the same compound, the IC50 [12] was 3.16 µM (active).
With `COc1ccccc1NC(=O)CN1CCC(n2c(C)nc3cc(F)ccc32)CC1` the IC50 [19] was 1.53 µM (active), the EC50 (HEK293 [13]) was > 59.6 µM (inactive) and the IC50 (Bcl-2-related protein A1) was > 20 µM (inactive). For the same compound, the EC50 (HEK293 [15]) was > 59.6 µM (inactive) and the IC50 [20] was 1.78 µM (active).
